The text below walks through data of ChEMBL document CHEMBL3751786, “Toxocara canis: Larvicidal activity of fatty acid amides” (Bioorg Med Chem Lett, 2016).

The subject of data set [1] is Toxocara canis. Kind of data set: Larvicidal activity against Toxocara canis larvae infected in BALB/c mouse at 1 mg/ml after 12 hrs. The class given is functional.
The test system of data set [2] is Toxocara canis. Kind of data set: Larvicidal activity against Toxocara canis larvae at 1 mg/ml after 48 hrs by trypan blue assay relative to control. In kind it is functional.
The subject of data set [3] is Toxocara canis. The data set is described as follows: Larvicidal activity against Toxocara canis larvae infected in BALB/c mouse at 40 mg/kg after 12 hrs. The class given is functional, organism-based.
A short description of data set [4]: Cytotoxicity against C57BL/6 mouse peritoneal macrophages at 0.025 to 0.05 mg/ml after 48 hrs by LDH release assay. In kind it is cell-based. Particulars: peritoneal macrophage cell. For orientation: Release of lactate dehydrogenase indicates damage to the cell membrane.
The subject of data set [5] is Toxocara canis. The data set is described as follows: Larvicidal activity against Toxocara canis larvae infected in BALB/c mouse at 0.05 mg/ml after 12 hrs. In kind it is functional.
A short description of data set [6]: Cytotoxicity against C57BL/6 mouse peritoneal macrophages at 0.025 to 0.05 mg/ml after 48 hrs by MTT assay. The class given is cell-based, Peritoneal macrophage cell. Particulars: read-out: MLC.

The source made the active and inactive calls. The calls are words filed in the database; no cut-off is given here.

As for `CCCCC/C=C\C/C=C\CCCCCCCC(=O)N[C@@H](C)c1ccccc1`, the outcome in the data set with Toxocara canis [1] was Active. Besides, the Activity in the data set on Toxocara canis [2] is 100%.

With `CCCCCCCC/C=C\CCCCCCCC(=O)N[C@@H](C)c1ccccc1`, the outcome in the data set on Toxocara canis [1] was Active. In addition, the Activity in the data set on Toxocara canis [2] is recorded as 100%.

As to `CCCCCCCCCCCCCCCCCC(=O)N[C@H](C)c1ccccc1`, the result in the data set with Toxocara canis [1] was Active. The same compound registered an Activity with Toxocara canis [2] of 100%.

Regarding `CCCCCCCCCCCCCCCC(=O)N[C@H](C)c1ccccc1`, the result in the data set on Toxocara canis [1] was Active. This compound also showed an Activity in the data set with Toxocara canis [2] of 100%.

`CCCCCCCC/C=C\CCCCCCCC(=O)N[C@H](C)c1ccccc1`: in the data set on Toxocara canis [1], the outcome was Active. Moreover, the Activity in the data set on Toxocara canis [2] was 100%.

Take `CCCCCC[C@@H](O)C/C=C\CCCCCCCC(=O)N[C@@H](C)c1ccccc1`: in the data set on Toxocara canis [1], the outcome was Active. This compound also registered an Activity with Toxocara canis [2] of 100%.

In the case of `CCCCCCCCCCCCCCCCCC(=O)N[C@@H](C)c1ccccc1`, the outcome with Toxocara canis [1] was Active. This compound showed an Activity in the data set with Toxocara canis [2] of 100%.

As to `CCCCCC[C@@H](O)C/C=C\CCCCCCCC(=O)NCc1ccccc1`, in the data set on Toxocara canis [1], the outcome was Active. Also, the Activity in the data set on Toxocara canis [2] was found to be 100%.

For the compound `CCCCCC[C@@H](O)C/C=C\CCCCCCCC(=O)N[C@H](C)c1ccccc1`, the outcome in the data set on Toxocara canis [1] was Active. The compound also had an Activity with Toxocara canis [2] of 100%.

On to `CCCCCCCC/C=C\CCCCCCCC(=O)NN1CCOCC1`, for which the outcome in the data set with Toxocara canis [1] was Active. This compound also showed an Activity in the data set with Toxocara canis [2] of 100%.

With `CCCSc1ccc2[nH]c(NC(=O)OC)nc2c1` [ALBENDAZOLE], the outcome with Toxocara canis [3] was Active. In the data set with Toxocara canis [2], this compound returned an Activity of 100%.

`CCCCCC[C@@H](O)C/C=C\CCCCCCCC(=O)NN1CCCC1`: the result in the data set on Toxocara canis [1] was Active. The compound also gave an Activity in the data set with Toxocara canis [2] of 100%.

Regarding `CCCCCC[C@@H](O)C/C=C\CCCCCCCC(=O)NN1CCOCC1`, the outcome in the data set on Toxocara canis [1] was Active. Moreover, the Activity with Toxocara canis [2] came to 100%.

`CCCCCCCC/C=C\CCCCCCCC(=O)NC(C)c1ccccc1` (centres undefined): the result in the data set on Toxocara canis [1] was Active. The same compound had an Activity with Toxocara canis [2] of 100%.

For the compound `CCCCC/C=C\C/C=C\CCCCCCCC(=O)N[C@H](C)c1ccccc1`, in the data set with Toxocara canis [1], the outcome was Active. The compound further showed an Activity with Toxocara canis [2] of 100%.

In the case of `CCCCC/C=C\C/C=C\CCCCCCCC(=O)NN1CCCC1`, the Activity in data set [4] is listed as 27%; in the data set with Toxocara canis [2], 100%. For the same compound, the result in the data set on Toxocara canis [5] was Active. The MCC at 48 h in data set [6] worked out at 50 µg/mL.
